Like-named read-outs stand apart in the source and are kept apart here.
Legend:
Leucotriene D4 Receptor = molecular target: T1, Leucotriene D4 Receptor (Cavia porcellus, UniProt Q2NNR5); experiment: Leucotriene D4 Receptor Binding Inhibition Test; set-up: species or system guinea pig
T1 construct: guinea pig pulmomembranous protein; from tissue; host or cells: guinea pig lung membranes
T1 sequence (Q2NNR5 1-340): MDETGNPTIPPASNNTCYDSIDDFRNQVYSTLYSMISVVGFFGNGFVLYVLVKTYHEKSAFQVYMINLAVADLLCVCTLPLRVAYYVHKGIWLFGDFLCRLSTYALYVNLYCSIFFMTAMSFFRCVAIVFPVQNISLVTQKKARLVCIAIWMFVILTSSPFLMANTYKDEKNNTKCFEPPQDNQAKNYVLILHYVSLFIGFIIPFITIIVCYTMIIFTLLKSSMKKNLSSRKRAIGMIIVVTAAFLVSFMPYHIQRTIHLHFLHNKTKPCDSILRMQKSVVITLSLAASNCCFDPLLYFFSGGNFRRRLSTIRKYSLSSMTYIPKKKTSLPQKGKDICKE
Protocol: An ice-cooled tris hydrochloride/sodium chloride buffer (10 mM/100 mM, pH 7.5) was added to terminate the reaction, followed by immediate filtration through a Wattman CF/C filter. The filter was washed twice with 20 ml aliquots of the ice-cooled buffer. The radioactivity of the residue was measured by a liquid scintillation counter. […] Using the Cheng-Prusoff formula, a dissociation constant (KD) was calculated from the IC50. […] Incidentally, the values in Table 2 indicate dissociation constants KD (mol).

[1] = tested on: isolated guinea pig ileum; experiment: Antileucotriene D4 Action (In Vitro Test): leukotriene D4 contractile response of isolated guinea pig ileum; assay type: cell-based; settings: Cavia porcellus, 0.5 h; read-out: Anti-LT action (IC50)
Protocol: Antileucotriene D4 Action (In Vitro Test)
An isolated guinea pig ileum was cut into about 2 cm lengths. Each ileum piece was suspended in a 20-ml container filled with the Krebs buffer. […] The Krebs buffer was controlled at 37° C., through which a mixed gas (95%O2 -5%CO2) was bubbled. […] After the ileum piece was washed several times with the buffer, a test compound (will be identified by its example number; this will apply likewise hereinafter) of a predetermined specific concentration was added.

airway = settings: Larsen & Acosta 1993, cited from earlier work
[2] = read-out: LTD receptor, dissociation constant KD
[3] = 0.2 nM [3H]leukotriene D4, guinea pig pulmomembranous protein, pH 7.5, 30 min, calculated from IC50 by Cheng-Prusoff formula, read-out: LTD receptor, dissociation constant KD

## CCOC(=O)c1cc(Br)cc2c(=O)cc(-c3cccc(OCc4ccc5ccc(Cl)cc5n4)c3)oc12 [Example 14, 6-bromo-8-ethoxycarbonyl-3'-[2-(7-chloroquinolinyl)methoxy]flavone]
Leucotriene D4 Receptor; [2]
  Kd: 11.1 nM

## CCOC(=O)c1cc(Br)cc2c(=O)cc(-c3cccc(OCc4nc5ccccc5n4C)c3)oc12 [Example 17, 6-bromo-8-ethoxycarbonyl-3'-[2-(1-methylbenzimidazolyl)methoxy]flavone]
Leucotriene D4 Receptor; [2]
  Kd: 210 nM

## CCOC(=O)c1cc(Br)cc2c(=O)cc(-c3cccc(OCc4nc5ccccc5s4)c3)oc12 [Example 18, 6-bromo-8-ethoxycarbonyl-3'-[(2-benzothiazolinyl)methoxy]flavone]
Leucotriene D4 Receptor; [2]
  Kd: 79.4 nM

## O=C(O)c1cc(Br)cc2c(=O)cc(-c3cccc(OCc4ccc5ccccc5n4)c3)oc12 [Example 23, 6-bromo-8-carboxy-3'-(2-guinolinylmethoxy)flavone]
[1]
  IC50: 61 nM

## O=C(O)c1cc(Br)cc2c(=O)cc(-c3cccc(OCc4ccc5ccccc5c4)c3)oc12 [Example 26, 6-bromo-8-carboxy-3'-(2-naphthylmethoxy)flavone]
Leucotriene D4 Receptor; [3]
  Kd: 1130 nM

## O=C(O)c1cc(Br)cc2c(=O)cc(-c3cccc(OCc4nc5ccccc5s4)c3)oc12 [Example 27, 6-bromo-8-carboxy-3'-(2-benzothiazolylmethoxy)flavone]
Leucotriene D4 Receptor; [3]
  Kd: 79.4 nM

## Cn1c(COc2cccc(-c3cc(=O)c4cc(Br)cc(C(=O)O)c4o3)c2)nc2ccccc21 [Example 28, 6-bromo-8-carboxy-3'-[2-(1-methylbenzimidazolyl)methoxy]flavone]
Leucotriene D4 Receptor; [3]
  Kd: 210 nM

## O=C(O)c1cccc2c(=O)c(O)c(-c3ccc(OCc4ccc5ccccc5n4)cc3)oc12 [Example 29, 8-carboxy-3-hydroxy-4'-[(2-quinolinyl)methoxy]flavone]
Leucotriene D4 Receptor; [2]
  Kd: 805 nM

## O=C(O)c1cccc2c(=O)c(OCCN3C(=O)c4ccccc4C3=O)c(-c3ccc(OCc4ccc5ccccc5n4)cc3)oc12 [Example 31, 8-carboxy-3-(2-phthalimido)ethoxy-4'-[(2-quinolinyl)methoxy]flavone]
Leucotriene D4 Receptor; [2]
  Kd: 9160 nM

## O=c1cc(-c2cccc(/C=C/c3ccc4ccccc4n3)c2)oc2ccc(-c3nnn[nH]3)cc12 [Example 37, 3'-[2-(2-quinolinyl)ethenyl]-6-(5-tetrazolyl)flavone]
Leucotriene D4 Receptor; [3]
  Kd: 307 nM

## O=C(O)c1cccc2c(=O)cc(-c3cccc(/C=C/c4ccc5ccccc5n4)c3)oc12 [Example 39, 8-carboxy-3'-[2-(2-quinolinyl)ethenyl]flavone]
Leucotriene D4 Receptor; [2]
  Kd: 17.3 nM

## O=C(O)c1cc(F)cc2c(=O)cc(-c3cccc(/C=C/c4ccc5ccccc5n4)c3)oc12 [Example 40, 8-carboxy-6-fluoro-3'-[2-(2-quinolinyl)ethenyl]flavone]
Leucotriene D4 Receptor; [3]
  Kd: 127 nM

## O=C(O)c1cc(Cl)cc2c(=O)cc(-c3cccc(/C=C/c4ccc5ccccc5n4)c3)oc12 [Example 41, 8-carboxy-6-chloro-3'-[2-(2-quinolinyl)ethenyl]flavone]
[1]
  IC50: 15 nM

## O=C(O)c1cc(Br)cc2c(=O)cc(-c3cccc(/C=C/c4ccc5ccccc5n4)c3)oc12 [Example 42, 8-carboxy-6-bromo-3'-[2-(2-quinolinyl)ethenyl]flavone]
[1]
  IC50: 100 nM

## Cc1cc(C(=O)O)c2oc(-c3cccc(/C=C/c4ccc5ccccc5n4)c3)cc(=O)c2c1 [Example 43, 8-carboxy-6-methyl-3'-[2-(2-quinolinyl)ethenyl]flavone]
[1]
  IC50: 28 nM

## O=c1cc(-c2cccc(/C=C/c3ccc4ccccc4n3)c2)oc2c(-c3nn[nH]n3)cc(Cl)cc12 [Example 45, 6-chloro-3'-[2-(2-quinolinyl)ethenyl]-8-(5-tetrazolyl)flavone]
Leucotriene D4 Receptor; [2]
  Kd: 11 nM

## CCCCC/C=C\C\C=C/C=C/C=C/[C@@H](SC[C@H](NC(=O)CC[C@H](N)C(=O)O)C(=O)NCC(=O)O)[C@@H](O)CCCC(=O)O [LTC4]
airway; inhaled, vs histamine
  effect on airway constriction relative to histamine: 1,000 times

## CCCCC/C=C\C\C=C/C=C/C=C/[C@@H](SC[C@H](N)C(=O)O)[C@@H](O)CCCC(=O)O [LTE4]
airway
  activity compared with the other leucotrienes: lower activities compared with the other leucotrienes
  duration of induced airway constriction: long lasting

## [^3 H]leukotriene D4 [reference compound]
Leucotriene D4 Receptor; [3H]leukotriene D4, guinea pig pulmomembranous protein, read-out: dissociation constant (KD) of radioligand
  Kd: 0.216 nM
Leucotriene D4 Receptor; [3H]leukotriene D4 binding
  Hill plot slope: 0.99

Reference: patent publication US6136848A, “Flavone derivative and medicine comprising the same” (Kowa Co., Ltd., priority 1996, dated 2000)
